A short description of series [1]: Approximate solubility in various solvents at ambient temperature (aliquot addition, visual observation). As to conditions: for solubility: ambient temperature. Type of series: physicochemical. Here is the method:
Aliquots of various solvents were added to measured amounts of a Form I with agitation (typically sonication) at ambient temperature until complete dissolution was achieved, as judged by visual observation. If dissolution occurred after the addition of the first aliquot, values are reported as “>”.

Series [2] in a line: pH of aqueous solution using pH test strips. The series is classed as physicochemical. As to conditions: 10 mg/mL aqueous solution.
A short description of series [3]: Dynamic Vapor Sorption (DVS). Type of series: physicochemical. The note with it: for Post-DVS crystalline form: XRPD of post-DVS solids. Here is the method:
Dynamic vapor sorption data were collected on a Surface Measurement System DVS Intrinsic instrument.
Samples were not dried prior to analysis. Sorption and desorption data were collected over a range from 5% to 95% RH at 10% RH increments under a nitrogen purge. The equilibrium criterion used for analysis was less than 0.0100% weight change in 5 minutes with a maximum equilibration time of 3 hours. Data were not corrected for the initial moisture content of the samples.

Series [4] is described as follows: Particle size distribution (PSD). The series is classed as physicochemical.
A short description of series [5]: Dry milling, effect on crystallinity (XRPD). The series is classed as physicochemical. The note with it: 30 Hz for 3×10 minutes. Here is the method: A dry milling experiment was conducted to investigate the effect on crystallinity.
Series [6] can be described thus: Stable form screen from slurries in organic solvent (state by XRPD). Type of series: physicochemical.
The nature of series [7]: Stable form screen from slurries in aqueous/organic mixtures at room temperature for 7 days (state by XRPD). Type of series: physicochemical. As to conditions: RT.
The nature of series [8]: Heating by DSC from RT to 200° C. and cooling to RT, XRPD of treated sample. Type of series: physicochemical. The note with it: cooled down to RT. Here is the method:
An (R)-MDMA HCl Form 1 sample was heated by DSC from RT to 200° C. and cooled down to RT.
(In general: DSC measures the heat that a sample takes up or gives off during a temperature scan.)

A short description of series [9]: Stable form and polymorph screen, twenty-nine experiments (XRPD). The series is classed as physicochemical. The note with it: all samples of Example 3, XRPD.
Series [10] is described as follows: Relative humidity stressing (state by XRPD). As to conditions: for Observations after RH stressing / State after RH stressing: 6 d.
The conditions of series [11]: background statement; cited from earlier work.

Each structure is given as a SMILES string. Like-named read-outs stand apart in the source and are kept apart here.

The values that follow come from patent US12492178B2, “Stable polymorph of R-MDMA HCl” (EMPATHBIO, INC., priority 2021, dated 2025).

Usually solubility stands for the dissolved amount per volume that the medium holds.

On to `CN[C@H](C)Cc1ccc2c(c1)OCO2.Cl` [R-MDMA HCl Form I, (R)-3,4-methylenedioxymethamphetamine HCl], for which the “Approximate solubility at RT (in words)” value is “good solubility in ACN, DCM, and most alcohols” in series [1] (ACN, DCM, and most alcohols, listed as R-MDMA HCl Form 1, HCl); “The compound exhibited high solubility in aqueous environments,” in series [1] (aqueous environments, HCl); “high solubility in aqueous environments” in series [1] (aqueous environments, listed as R-MDMA HCl Form 1, HCl); “Lower solubility was observed in most organic solvents tested” in series [1] (most organic solvents tested, HCl); “Lower solubility was observed in most organic solvents tested” in [1] (most organic solvents tested, listed as R-MDMA HCl Form 1, HCl). The solubility in series [1] (Water, listed as R-MDMA HCl Form 1, HCl) is greater than 110000 µg/mL; in series [1] (organic solvent or mixture, thermodynamic from solid, 1-BuOH, read-out: Solubility), 3000 µg/mL; in series [1] (organic solvent or mixture, thermodynamic from solid, 90:10 Acetone/Water, read-out: Solubility), greater than 76000 µg/mL; in series [1] (organic solvent or mixture, thermodynamic from solid, Acetone, read-out: Solubility), less than 1000 µg/mL; in series [1] (organic solvent or mixture, thermodynamic from solid, CAN, read-out: Solubility), 7000 µg/mL; in series [1] (organic solvent or mixture, thermodynamic from solid, DCM, read-out: Solubility), 16000 µg/mL. For the same compound, the solubility in series [1] (organic solvent or mixture, thermodynamic from solid, EtOAc, read-out: Solubility) is less than 1000 µg/mL; in series [1] (organic solvent or mixture, thermodynamic from solid, EtOH, read-out: Solubility), 25000 µg/mL; in series [1] (organic solvent or mixture, thermodynamic from solid, Heptane, read-out: Solubility) it was less than 1000 µg/mL; in series [1] (organic solvent or mixture, thermodynamic from solid, IPA, read-out: Solubility), 6000 µg/mL; in series [1] (organic solvent or mixture, thermodynamic from solid, MTBE, read-out: Solubility) it was less than 1000 µg/mL; in [1] (organic solvent or mixture, thermodynamic from solid, MeOH, read-out: Solubility), greater than 114000 µg/mL. Moreover, the solubility was less than 1000 µg/mL in series [1] (organic solvent or mixture, thermodynamic from solid, MeOH/MTBE (5:95), read-out: Solubility); less than 2000 µg/mL in series [1] (organic solvent or mixture, thermodynamic from solid, MeOH/MTBE (10:90), read-out: Solubility); 3000 µg/mL in series [1] (organic solvent or mixture, thermodynamic from solid, MeOH/MTBE (20:80), read-out: Solubility); less than 1000 µg/mL in [1] (organic solvent or mixture, thermodynamic from solid, THF, read-out: Solubility); less than 1000 µg/mL in series [1] (organic solvent or mixture, thermodynamic from solid, p-dioxane, read-out: Solubility); 1000 µg/mL in [1] (organic solvent or mixture, thermodynamic from solid, t-BuOH, read-out: Solubility). Moreover, the solubility in [1] (thermodynamic from solid, Water, read-out: Solubility) was greater than 110000 µg/mL. Also, the “pH of aqueous solution” value in series [2] is listed as “pH of a 10 mg/mL aqueous solution is approximately 6 using pH test”. In addition, the “Water sorbed, equivalent moles” value in series [3] (5-85% RH) was 0.04 moles water; in series [3] (85-95% RH, per mole of salt) it was 0.7 mol water. Also, the DVS wt. gain in [3] (5-85% RH, sorption, HCl) was 0.28% wt. gain 5-85% RH; in series [3] (5-85% RH, sorption, listed as (R)-MDMA HCl Form I, HCl), 0.28%; in [3] (85-95% RH, sorption), 5.00%. For the same compound, the DVS weight gain in [3] (5-95% RH, sorption, listed as (R)-3,4-methylenedioxymethamphetamine HCl Form I, HCl) is 5.28±0.02%. For the same compound, the DVS wt. loss is given as 0.51% wt. loss 85-5% RH in series [3] (85-5% RH, desorption) and 4.84% wt. loss 95-85% RH in series [3] (95-85% RH, desorption). This compound also showed a DVS weight loss in series [3] (95-5% RH, desorption, listed as (R)-3,4-methylenedioxymethamphetamine HCl Form I, HCl) of 5.35±0.02%. The Post-DVS crystalline form result is given as “Post-DVS crystalline form was found to be Form I” in [3] (HCl) and “consistent with Form I” in series [3] (listed as (R)-MDMA HCl Form I, HCl). Also, the “Hygroscopicity (in words)” value in series [3] (between 5% and 85% RH) is listed as “low hygroscopicity”; in series [3] (between 85% and 95% RH), “Significant hygroscopicity”. In addition, the Hysteresis on desorption result in series [3] (desorption 95-5% RH) is “virtually no hysteresis”. Also, the “PSD d10” value in series [4] is listed as 5.10 μm. Also, in [4], the “PSD d50” value amounted to 19.2 μm. The “PSD d90” value in series [4] worked out at 48.8 μm. Moreover, the “State after dry milling” value in series [5] is given as “Form I with no apparent decrease in crystallinity”. Moreover, the State after slurry result in series [6] (1-BuOH, RT, 14 d) was “Form I”; in [6] (90:10 EtOAc/MeOH, RT, 14 d), “Form I”; in series [6] (ACN, RT, 14 d) it was “Form I”; in series [6] (DCM, RT, 14 d), “Form I”; in series [6] (EtOH, RT, 14 d), “Form I”; in series [6] (IPA, RT, 14 d), “Form I”. In addition, the State after slurry entry in series [6] (IPA, ~5° C., 14 d) is “Form I”; in series [6] (MeOH/MTBE (10:90), RT, 5 d) it was “Form I”; in series [6] (t-BuOH, ~75° C., 7 d) it was “Form I”; in series [7] (THF/water 98:2 (aw 0.38)), “Form I”; in [7] (acetone/water 98:2 (aw 0.35)), “Form I”; in series [7] (p-dioxane/water 95:5 (aw 0.40)), “Form I”. Besides, the “Crystalline state after heating” value in series [8] is “Form I crystalline state”. In addition, the “Form found in stable form and polymorph screen” value in series [9] is “Form I was formed in each case”. Further, the “Observations after RH stressing” value was “free-flowing solids, B/E” in series [10] (75% RH); “mostly free-flowing solids, some clumps,” in series [10] (90% RH); “off-white fines, B/E, some deliquesence” in series [10] (97% RH). For the same compound, the “State after RH stressing” value is recorded as “Form I” in series [10] (75% RH); “Form I” in series [10] (90% RH); “Form I, PO” in series [10] (97% RH). In series [10] (97% RH for 6 days), the “Physical stability upon stressing” value is “exhibits physical stability”.
As to `CNC(C)Cc1ccc2c(c1)OCO2.Cl` (racemic) [hydrochloride salt of racemic MDMA], in series [11], the “Solubility in water (in words)” value is reported as “soluble in water”.
As to `CNC(C)Cc1ccc2c(c1)OCO2` (stereo not drawn) [MDMA, 3,4-Methylenedioxymethamphetamine], in series [11], the “Solubility in water (in words)” value is “insoluble in water”.
